Test results from patent publication US9801901B2, “Alginate oligomers for use in overcoming multidrug resistance in bacteria” (priority 2009, dated 2017).
≈ marks a conversion by molar mass, not a printed value. Read-outs that look alike come from different tables or passages of the source. Marks after values point to notes of the source that are not given here.

Key:
[1] = system: Burkholderia cepacia (1322, V23); test: MIC-assay, Mueller-Hinton broth with G-block alginate, 384-well, OD600
[2] = system: Pseudomonas aeruginosa MDR 301 from Poland (V2); test: MIC assay, CAMHB with alginate oligomer, no visible growth; type: cell-based; settings: Pseudomonas aeruginosa, Table 1, V2 MDR 301 PA, read-out: MIC
[3] = system: Acinetobacter lwoffii (6056, V22); test: MIC-assay, Mueller-Hinton broth with G-block alginate, 384-well, OD600
[4] = system: V9 (Egypt) Acinetobacter baumannii; test: MIC assay, CAMHB with alginate oligomer, no visible growth; type: cell-based; settings: Table 5, V9 MDR Acin. baum
[5] = system: V12 5725 (Wales) Klebsiella pneumoniae; test: as above; type: cell-based; settings: Table 5, V12 MDR Kleb pneu
[6] = system: strains of E. coli displaying MDR phenotypes; test: MIC-assay, Mueller-Hinton broth with G-block alginate, 384-well, OD600 (Table 11); type: cell-based; settings: Escherichia coli, Escherichia coli (5702, Wales, V11) MDR, read-out: MIC
Excerpt: Minimum inhibitory concentration (MICs) of different antibiotics for strains of E. coli and Providencia stuartii displaying MDR phenotypes in the presence of varying concentrations of OligoCF-5/20 (0-10%). (MIC values are expressed in μg ml^−1).

[7] = system: Acinetobacter baumannii MDR ACB from Libya (V4); test: MIC assay, CAMHB with alginate oligomer, no visible growth; type: cell-based; settings: for MIC: Acinetobacter baumannii, read-out: MIC
Excerpt: (§1) The study described in Example 1 was repeated with the following strains of bacteria and antibiotics as detailed in Tables 4, 5 and 6.
The study described in Example 1 was repeated with the following strains of Acinetobacter baumannii, antibiotics and M-block alginate oligomer in place of OligoG CF-5/20 as detailed in Table 7. The M-block oligomer is 100% M with a DPn of 15 to 18,

[8] = system: Acinetobacter baumannii (MDR ACB, Libya, V4); test: MIC-assay, Mueller-Hinton broth with G-block alginate, 384-well, OD600
V22 6056 Acinetobacter = test: MIC assay, CAMHB with alginate oligomer, no visible growth; type: cell-based, Acinetobacter lwoffii; settings: Table 5, V22 MDR Acin. lwoff
[9] = system: strains of Klebsiella pneumoniae displaying MDR phenotypes; test: MIC-assay, Mueller-Hinton broth with G-block alginate, 384-well, OD600 (Table 10); type: cell-based; settings: read-out: MIC
Excerpt: Minimum inhibitory concentration (MICs) of different antibiotics for strains of Klebsiella pneumoniae displaying MDR phenotypes in the presence of varying concentrations of OligoCF-5/20 (0-10%). (MIC values are expressed in μg ml^−1).

[10] = system: Pseudomonas aeruginosa MDR R22 from China (V1); test: MIC assay, CAMHB with alginate oligomer, no visible growth; type: cell-based; settings: for MIC: Pseudomonas aeruginosa, Table 1, V1 MDR R22 PA, read-out: MIC
Excerpt: as §1

[11] = system: PA01 Pseudomonas aeruginosa ATCC 15692; test: MIC assay, two-fold antibiotic dilutions in CAMHB with alginate oligomer, no visible growth; type: cell-based; settings: Pseudomonas aeruginosa, ATCC15692, Table 1, PA01, read-out: MIC
[12] = system: V10 (Egypt) Acinetobacter lwoffii; test: MIC assay, CAMHB with alginate oligomer, no visible growth; type: cell-based; settings: Table 5, V10 MDR Acin. lwoff
[13] = system: Pseudomonas aeruginosa CFA 24-1, clinical mucoid strain (R80); test: as above; type: cell-based; settings: Pseudomonas aeruginosa, Table 1, R80, read-out: MIC
[14] = Table 9, G-block (OligoCF-5/20) 0%
[15] = Table 9, G-block (OligoCF-5/20) 2%
[16] = Table 9, G-block (OligoCF-5/20) 6%
[17] = Table 9, G-block (OligoCF-5/20) 10%
[18] = Klebsiella pneumoniae, OligoCF-5/20 0G, read-out: MIC
[19] = Table 1, V4 ACB (Libya), OligoCF-5/20 0G
[20] = Table 1, V4 ACB (Libya), OligoCF-5/20 +2% G
[21] = Table 1, V4 ACB (Libya), OligoCF-5/20 +6% G
[22] = Table 1, V4 ACB (Libya), OligoCF-5/20 +10% G
[23] = Table 7, V4 MDR Acin baum (Libya), M-block oligomer 0M
[24] = Table 7, V4 MDR Acin baum (Libya), M-block oligomer +2% M
[25] = Table 7, V4 MDR Acin baum (Libya), M-block oligomer +6% M
[26] = Acinetobacter, OligoCF-5/20 0G, read-out: MIC

Compound: O=C(O)c1cn(C2CC2)c2cc(N3CCNCC3)c(F)cc2c1=O [Ciprofloxacin]
- MIC ([1]; Table 8, G-block (OligoCF-5/20) 0%): > 8 µg/mL
- MIC ([1]; Table 8, G-block (OligoCF-5/20) 2%): > 8 µg/mL
- MIC ([1]; Table 8, G-block (OligoCF-5/20) 6%): > 8 µg/mL
- MIC ([1]; Table 8, G-block (OligoCF-5/20) 10%): > 8 µg/mL
- MIC ([2]; OligoCF-5/20 0G): 16 µg/mL (≈ 48.3 µM)
- MIC ([2]; OligoCF-5/20 +2% G): 16 µg/mL (≈ 48.3 µM)
- MIC ([2]; OligoCF-5/20 +6% G): 8 µg/mL (≈ 24.1 µM)
- MIC ([2]; OligoCF-5/20 +10% G): 8 µg/mL (≈ 24.1 µM)
- MIC [3, 14]: < 2 µg/mL
- MIC [3, 15]: < 2 µg/mL
- MIC [3, 16]: < 2 µg/mL
- MIC [3, 17]: < 2 µg/mL
- MIC ([4]; OligoCF-5/20 0G): -64^† μg/ml
- MIC ([4]; OligoCF-5/20 +2% G): 32^† μg/ml
- MIC ([4]; OligoCF-5/20 +6% G): 32^† μg/ml
- MIC ([4]; OligoCF-5/20 +10% G): 32^† μg/ml
- MIC [5, 18]: 64 µg/mL (≈ 193 µM)
- MIC ([5]; OligoCF-5/20 +2% G): 64 µg/mL (≈ 193 µM)
- MIC ([5]; OligoCF-5/20 +6% G): 256^‡ μg/ml
- MIC ([5]; OligoCF-5/20 +10% G): 256^‡ μg/ml
- MIC ([6]; G-block (OligoCF-5/20) 0%): > 8 µg/mL
- MIC ([6]; G-block (OligoCF-5/20) 2%): > 8 µg/mL
- MIC ([6]; G-block (OligoCF-5/20) 6%): > 8 µg/mL
- MIC ([6]; G-block (OligoCF-5/20) 10%): > 8 µg/mL
- MIC [7, 19]: 64 µg/mL (≈ 193 µM)
- MIC [7, 20]: 32 µg/mL (≈ 96.6 µM)
- MIC [7, 21]: 16 µg/mL (≈ 48.3 µM)
- MIC [7, 22]: 16 µg/mL (≈ 48.3 µM)
- MIC [7, 23]: 64 µg/mL (≈ 193 µM)
- MIC [7, 24]: 64 µg/mL (≈ 193 µM)
- MIC [7, 25]: 64 µg/mL (≈ 193 µM)
- effect in combination with alginate oligomers ([7]; Example 1, Acinetobacter baumannii isolate): more positive effect
- change of MIC in combination with azithromycin by alginate oligomer ([7]; Table 3, MDR Acinetobacter baumannii isolate): reduced
- MIC [8, 14]: 4 µg/mL (≈ 12.1 µM)
- MIC [8, 15]: 1 µg/mL (≈ 3.02 µM)
- MIC [8, 16]: 1 µg/mL (≈ 3.02 µM)
- MIC [8, 17]: 0.5 µg/mL (≈ 1.51 µM)
- MIC (V22 6056 Acinetobacter; [26]): < 0.25 µg/mL
- MIC ([9]; Klebsiella pneumoniae (5712, Wales, V12) MDR, G-block (OligoCF-5/20) 0%): > 8 µg/mL
- MIC ([9]; Klebsiella pneumoniae (5712, Wales, V12) MDR, G-block (OligoCF-5/20) 2%): > 8 µg/mL
- MIC ([9]; Klebsiella pneumoniae (5712, Wales, V12) MDR, G-block (OligoCF-5/20) 6%): > 8 µg/mL
- MIC ([9]; Klebsiella pneumoniae (5712, Wales, V12) MDR, G-block (OligoCF-5/20) 10%): > 8 µg/mL
- MIC ([9]; Klebsiella pneumoniae (IR25, India, V6) MDR, G-block (OligoCF-5/20) 2%): 64 µg/mL (≈ 193 µM)
- MIC ([9]; Klebsiella pneumoniae (IR25, India, V6) MDR, G-block (OligoCF-5/20) 6%): 64 µg/mL (≈ 193 µM)
- MIC ([9]; Klebsiella pneumoniae (IR25, India, V6) MDR, G-block (OligoCF-5/20) 10%): 64 µg/mL (≈ 193 µM)
- MIC ([9]; Klebsiella pneumoniae (K3, India, V8) MDR, G-block (OligoCF-5/20) 0%): 32 µg/mL (≈ 96.6 µM)
- MIC ([9]; Klebsiella pneumoniae (K3, India, V8) MDR, G-block (OligoCF-5/20) 2%): 32 µg/mL (≈ 96.6 µM)
- MIC ([9]; Klebsiella pneumoniae (K3, India, V8) MDR, G-block (OligoCF-5/20) 6%): > 1020 µg/mL
- MIC ([9]; Klebsiella pneumoniae (K3, India, V8) MDR, G-block (OligoCF-5/20) 10%): > 1020 µg/mL
- MIC ([10]; OligoCF-5/20 0G): 16 µg/mL (≈ 48.3 µM)
- MIC ([10]; OligoCF-5/20 +2% G): 16 µg/mL (≈ 48.3 µM)
- MIC ([10]; OligoCF-5/20 +6% G): 8 µg/mL (≈ 24.1 µM)
- MIC ([10]; OligoCF-5/20 +10% G): 4 µg/mL (≈ 12.1 µM)
- change of MIC in combination with azithromycin by alginate oligomer ([10]; Table 3, MDR R22 PA strain): reduced
- MIC ([11]; OligoCF-5/20 +2% G): 0.0625 µg/mL (≈ 0.189 µM)
- MIC ([11]; OligoCF-5/20 +6% G): 0.0625 µg/mL (≈ 0.189 µM)
- MIC ([11]; OligoCF-5/20 +10% G): 0.0312 µg/mL (≈ 0.0943 µM)

Compound: C[C@@H](O)[C@H]1C(=O)N2C(C(=O)O)=C(S[C@@H]3CN[C@H](C(=O)N(C)C)C3)[C@H](C)[C@H]12 [Meropenem]
- MIC ([12]; Acinetobacter lwoffii, OligoCF-5/20 0G, read-out: MIC): 1 µg/mL (≈ 2.61 µM)
- MIC ([12]; OligoCF-5/20 +2% G): 0.5^† μg/ml
- MIC ([12]; OligoCF-5/20 +6% G): <0.25^† μg/ml
- MIC ([12]; OligoCF-5/20 +10% G): <0.25^† μg/ml
- MIC ([2]; OligoCF-5/20 0G): 64 µg/mL (≈ 167 µM)
- MIC ([2]; OligoCF-5/20 +2% G): 64 µg/mL (≈ 167 µM)
- MIC ([4]; Acinetobacter baumannii, OligoCF-5/20 0G, read-out: MIC): 16 µg/mL (≈ 41.7 µM)
- MIC ([4]; OligoCF-5/20 +2% G): 8^† μg/ml
- MIC ([4]; OligoCF-5/20 +6% G): 8^† μg/ml
- MIC ([4]; OligoCF-5/20 +10% G): 4^† μg/ml
- MIC [5, 18]: < 0.25 µg/mL
- MIC ([5]; OligoCF-5/20 +2% G): <0.25 µg/mL
- MIC ([5]; OligoCF-5/20 +6% G): <0.25 µg/mL
- MIC ([5]; OligoCF-5/20 +10% G): <0.25 µg/mL
- MIC ([13]; OligoCF-5/20 0G): < 1 µg/mL
- MIC ([13]; OligoCF-5/20 +2% G): < 1 µg/mL
- MIC ([13]; OligoCF-5/20 +6% G): < 1 µg/mL
- MIC ([13]; OligoCF-5/20 +10% G): < 1 µg/mL
- MIC [7, 19]: < 4 µg/mL
- MIC [7, 20]: < 4 µg/mL
- MIC [7, 21]: < 4 µg/mL
- MIC [7, 22]: < 4 µg/mL
- MIC [7, 23]: 16 µg/mL (≈ 41.7 µM)
- MIC [7, 24]: 32 µg/mL (≈ 83.4 µM)
- MIC [7, 25]: 16 µg/mL (≈ 41.7 µM)
- MIC ([7]; Table 7, V4 MDR Acin baum (Libya), M-block oligomer +10% M): 8 µg/mL (≈ 20.9 µM)
- MIC (V22 6056 Acinetobacter; [26]): 256 µg/mL (≈ 668 µM)
- MIC (V22 6056 Acinetobacter; OligoCF-5/20 +10% G): 64^† μg/ml
- MIC ([10]; OligoCF-5/20 0G): 32 µg/mL (≈ 83.4 µM)
- MIC ([10]; OligoCF-5/20 +2% G): 32 µg/mL (≈ 83.4 µM)
- MIC ([10]; OligoCF-5/20 +6% G): 16 µg/mL (≈ 41.7 µM)
- MIC ([10]; OligoCF-5/20 +10% G): 4 µg/mL (≈ 10.4 µM)
- MIC ([11]; OligoCF-5/20 0G): 2 µg/mL (≈ 5.22 µM)
- MIC ([11]; OligoCF-5/20 +2% G): 2 µg/mL (≈ 5.22 µM)
- MIC ([11]; OligoCF-5/20 +6% G): < 1 µg/mL
- MIC ([11]; OligoCF-5/20 +10% G): < 1 µg/mL
